Test results from article PMC11162475, “Rule-based omics mining reveals antimicrobial macrocyclic peptides against drug-resistant clinical isolates” (Nature Communications, 2024).
In brackets after ≈: the same amount, converted by molar mass. Each block holds one compound with its values, some of them ahead of it.

Assays:
VREfa ATCC51575 = assay: microbe, parasite or virus in culture; format: cell-based, Enterococcus faecalis; settings: Enterococcus faecalis; VREfa ATCC51575 (vancomycin-resistant E. faecalis); determined by Sichuan Primed Shines Bio-tech, similar protocol; read-out: MIC
Procedure: (§1) For MIC determination, Staphylococcus aureus ATCC25923, Bacillus subtilis 168, Micrococcus luteus DSM1790, Enterococcus faecalis OG1RF, Enterococcus faecium MCC2763, Escherichia coli DH5α and Pseudomonas aeruginosa PAO1 were used as indicator strains. Nisin and vancomycin were used as positive controls. A dilution series of massatide A, massatide B, vancomycin (16, 8, 4, 2, 1, 0.5, 0.25, 0.125, 0.0625, 0.0313 μg/mL) and sistertide A1, kebanetide A1, kebanetide A2, nisin (64, 32, 16, 8, 4, 2, 1, 0.5, 0.25, 0.125 μg/mL) were prepared in 96-well plate from 1–10th column. The indicator strains were added to the compound-containing well. The indicator strain culture with no antibiotics was prepared in the 11th column. The 12th column was filled with 200 μL empty MHB medium. The 96-well plate was incubated at 37 °C for 20 h (30 °C for M. luteus and B. subtilis). The OD600 was detected on MULTISKAN Sky (Thermo Scientific) and MIC values were determined. The MIC values of clinical isolates were determined by Sichuan Primed Shines Bio-tech Co., Ltd. (China) following similar protocol. Levofloxacin was used as a positive control.

LREfa 20-1 = assay: microbe, parasite or virus in culture; format: cell-based, Enterococcus faecalis; settings: Enterococcus faecalis, 201; LREfa 20-1 (linezolid-resistant E. faecalis); determined by Sichuan Primed Shines Bio-tech, similar protocol; read-out: MIC
Procedure: as §1

[1] = system: Enterococcus faecalis 19-1; assay: microbe, parasite or virus in culture; format: cell-based; settings: 191; Enterococcus faecalis 19-1; determined by Sichuan Primed Shines Bio-tech, similar protocol; read-out: MIC
Procedure: as §1

[2] = system: Klebsiella pneumoniae ATCC700603; assay: microbe, parasite or virus in culture; format: cell-based; settings: Klebsiella pneumoniae ATCC700603; determined by Sichuan Primed Shines Bio-tech, similar protocol; read-out: MIC
Procedure: as §1

[3] = system: Klebsiella pneumoniae 15-1; assay: microbe, parasite or virus in culture; format: cell-based; settings: 151; Klebsiella pneumoniae 15-1; determined by Sichuan Primed Shines Bio-tech, similar protocol; read-out: MIC
Procedure: as §1

[4] = system: Acinetobacter baumannii 20-2; assay: microbe, parasite or virus in culture; format: cell-based; settings: 202; Acinetobacter baumannii 20-2; determined by Sichuan Primed Shines Bio-tech, similar protocol; read-out: MIC
Procedure: as §1

[5] = system: Acinetobacter baumannii 20-1; assay: microbe, parasite or virus in culture; format: cell-based; settings: 201; Acinetobacter baumannii 20-1; determined by Sichuan Primed Shines Bio-tech, similar protocol; read-out: MIC
Procedure: as §1

MRSA ATCC43300 = assay: microbe, parasite or virus in culture; format: cell-based, Staphylococcus aureus; settings: Staphylococcus aureus; MRSA ATCC43300; determined by Sichuan Primed Shines Bio-tech, similar protocol; read-out: MIC
Procedure: as §1

MRSA ATCC33591 = assay: microbe, parasite or virus in culture; format: cell-based, Staphylococcus aureus; settings: Staphylococcus aureus; MRSA ATCC33591; determined by Sichuan Primed Shines Bio-tech, similar protocol; read-out: MIC
Procedure: as §1

VMSA ATCC700788 = assay: microbe, parasite or virus in culture; format: cell-based, Staphylococcus aureus; settings: Staphylococcus aureus; VMSA ATCC700788 (vancomycin-intermediate S. aureus); determined by Sichuan Primed Shines Bio-tech, similar protocol; read-out: MIC
Procedure: as §1

VMSA ATCC700699 = assay: microbe, parasite or virus in culture; format: cell-based, Staphylococcus aureus; settings: Staphylococcus aureus; VMSA ATCC700699 (vancomycin-intermediate S. aureus); determined by Sichuan Primed Shines Bio-tech, similar protocol; read-out: MIC
Procedure: as §1

LRSA 20-1 = assay: microbe, parasite or virus in culture; format: cell-based, Staphylococcus aureus; settings: Staphylococcus aureus; LRSA 20-1 (linezolid-resistant S. aureus); determined by Sichuan Primed Shines Bio-tech, similar protocol; read-out: MIC
Procedure: as §1

MRSA 15-1 = assay: microbe, parasite or virus in culture; format: cell-based, Staphylococcus aureus; settings: Staphylococcus aureus; MRSA 15-1 (methicillin-resistant S. aureus); determined by Sichuan Primed Shines Bio-tech, similar protocol; read-out: MIC
Procedure: as §1

HeLa cells = assay: Mammalian cytotoxicity, CCK-8 assay; format: cell-based
Procedure: (§2) Bioactivity assay of the crude extract
(§3) Protease stability of massatide A
(§4) Thermal stability of massatide A […]
(§5) and 1% penicillin -streptomycin. […]
(§6) and CO 2-controllable incubator with 5% CO 2. All the cell experiments were performed […]
(§7) Cell viability was determined by the CCK -8 assay. HeLa and Hek -293T cells were […]
(§8) µg/ml. At the end of the fixed incubation period (24 h), cells were washed with PBS to remove excess compound. We added 100 µl fresh medium and 10 µl CCK-8 reagent.
(§9) After 2 h incubation at 37°C, absorbance at 450 nm was recorded using a microplate reader. All experiments were performed in triplicate (n=3 independent experiments).
(§10) Growth kinetics of S. aureus
(§11) Massatide A or B was prepared in a 96-well plate at the concentration of 8×MIC, 4×MIC, 2×MIC, 1×MIC and 0.5×MIC , respectively. The MHB medium with no compound was used as a control. Then, the overnight culture of S. aureus ATCC 25923 cells was added to the medium at 1:1,000. The plate was incubated with shaking in SpectraMax iD3 (MOLECULAR DEVICES) at 30 ℃. OD600 was measured every 30 min for 36 hours. To analyze the lysis, 1mL of S. aureus ATCC 25923 culture (OD600 1.0) was treated with massatide A or vancomycin (10×MIC) for 24h. An untreated sample was used as a negative control.
(§12) Time-dependent killing assay
(§13) An overnight culture of S. aureus ATCC 25923 cells was diluted at 1:10,000 in MHB medium and incubated at 37 ℃, 200 rpm for 2 hours to reach the early exponential.
(§14) Then, massatide A or vancomycin was added to the culture at the concentration of 10×MIC. Bacteria were still cultivated at 37 ℃, 200 rpm. Culture with no antibiotics was used as a negative control. 10 μL aliquots were removed at intervals, centrifuged, and resuspended in 1 ml PBS. Serially diluted (10-fold) suspensions were plated on MHB agar and incubated at 37 ℃ overnight for counting of colony-forming units.
(§15) Experiments were performed in triplicate.
(§16) Sequential culturing of S. aureus ATCC 25923 was performed in the presence of a subinhibitory concentration of massatide A to observe whether the resistance developed. […]

[6] = Mammalian cytotoxicity, CCK-8 assay; format: cell-based; settings: human
Procedure: as §2, §3, §4, §5, §6, §7, §8, §9, §10, §11, §12, §13, §14, §15, §16

[7] = system: Pseudomonas aeruginosa PAO1; format: cell-based; settings: PAO1, 20 h
Procedure: as §1

Escherichia coli DH5α = format: cell-based; settings: DH5α, 20 h
Procedure: as §1

[8] = system: Micrococcus luteus DSM1790; assay: Kirby-Bauer assay, zone of inhibition (agar well); format: cell-based; settings: M. luteus DSM1790; 10 μL DMSO stock (3.2 or 1.6 mg/mL) in well of soft LB agar, 30 °C, 20 h
Procedure: (§17) The stock solution of massatide A (1) and B (1a) 3.2 mg/mL were prepared in DMSO. 40 μL overnight culture of Micrococcus luteus DSM1790 was added to 20 mL soft Luria-Bertani agar (1% agar), and then poured into a plate. 10 μL tip was used to make two wells on the plate. 10 μL massatide A (1) or B (1a) solution was added in one of the wells, while in the other well, 10 μL DMSO was added as a negative control. The plates were incubated at 30 °C for 20 h to observe the zone of inhibition. Staphylococcus aureus ATCC25923 was also used to observe the inhibition zone using a similar method. The only difference is incubating at 37 °C. Stock solutions of sistertide A1, kebanetide A1 and A2 were 3.2 mg/mL, 1.6 mg/mL and 1.6 mg/mL, respectively. The method to observe the activity of these compounds individually was the same as that of massatide.

[9] = system: Staphylococcus aureus ATCC25923; assay: Kirby-Bauer assay, zone of inhibition (agar well); format: cell-based; settings: S. aureus ATCC25923; 10 μL of 3.2 mg/mL DMSO stock in well of soft LB agar, 37 °C, 20 h
Procedure: as §17

[10] = system: Micrococcus luteus DSM1790; assay: microbe, parasite or virus in culture; format: cell-based; settings: DSM1790, 20 h
Procedure: as §1

[11] = system: Staphylococcus aureus ATCC25923; assay: microbe, parasite or virus in culture; format: cell-based; settings: ATCC25923, 20 h
Procedure: as §1

[12] = system: Enterococcus faecalis OG1RF; assay: microbe, parasite or virus in culture; format: cell-based; settings: OG1RF, 20 h
Procedure: as §1

[13] = system: Enterococcus faecium MCC2763; assay: microbe, parasite or virus in culture; format: cell-based; settings: MCC2763, 20 h
Procedure: as §1

Bacillus subtilis 168 = assay: microbe, parasite or virus in culture; format: cell-based; settings: 168, 20 h
Procedure: as §1

MIC (VREfa ATCC51575): 0.5 µg/mL (≈ 1.38 µM)
MIC (LREfa 20-1): 32 µg/mL (≈ 88.6 µM)
MIC [1]: 1 µg/mL (≈ 2.77 µM)
MIC [2]: 0.5 µg/mL (≈ 1.38 µM)
MIC [3]: 0.25 µg/mL (≈ 0.692 µM)
MIC [4]: 0.06 µg/mL (≈ 0.166 µM)
MIC [5]: 8 µg/mL (≈ 22.1 µM)
MIC (MRSA ATCC43300): 0.25 µg/mL (≈ 0.692 µM)
MIC (MRSA ATCC33591): 0.25 µg/mL (≈ 0.692 µM)
MIC (VMSA ATCC700788): 32 µg/mL (≈ 88.6 µM)
MIC (VMSA ATCC700699): 64 µg/mL (≈ 177 µM)
MIC (LRSA 20-1): 32 µg/mL (≈ 88.6 µM)
MIC (MRSA 15-1): 16 µg/mL (≈ 44.3 µM)
Compound: C[C@H]1COc2c(N3CCN(C)CC3)c(F)cc3c(=O)c(C(=O)O)cn1c23 [Levofloxacin, reference compound]

MIC [7]: >64 µg/mL
MIC (Escherichia coli DH5α): >64 µg/mL
MIC [10]: 0.25 µg/mL (≈ 0.153 µM)
MIC [11]: 1 µg/mL (≈ 0.612 µM)
MIC [12]: 4 µg/mL (≈ 2.45 µM)
MIC [13]: 4 µg/mL (≈ 2.45 µM)
MIC (Bacillus subtilis 168): 4 µg/mL (≈ 2.45 µM)
Compound: C/C=C1\NC(=O)C(N(C)C)C(C)SC[C@@H](C(=O)N/C(=C\C)C(=O)N[C@H](C(=O)N[C@@H](C)C(=O)N[C@H](C)C(=O)N[C@@H](Cc2ccccc2)C(=O)N[C@@H](C)C(=O)NC2C(=O)NCC(=O)N[C@@H](Cc3ccc(O)cc3)C(=O)N[C@@H](Cc3ccccc3)C(=O)N[C@H](C)C(=O)N/C=C\SC2C)C(C)C)NC(=O)[C@@H]2CCCN2C(=O)[C@H](C(C)C)NC1=O (stereo partly drawn) [Massatide B (1a), massatide B]
cytotoxicity against Hela cells (HeLa cells): did not exhibit any significant cytotoxicity
IC50 at 24 h [6]: > 200 µg/mL
inhibitory activity (zone of inhibition) [8]: strong inhibitory activity
inhibitory activity (zone of inhibition) [9]: strong inhibitory activity
